Test [1] concerns the target T1, GST-JAK1(866-1154) (Homo sapiens, UniProt P23458).
T1 construct: GST-JAK1(866-1154); made in house
Description: EPK JAK-family kinases profiling assay (Caliper mobility shift), JAK1. In kind it is biochemical. The following applies: ATP 40 μM, 50 nM kinase. In a few lines:
(§1)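 Turnover was read as substrate/product ratio after mobility-shift capillary-like separation of each reaction, run for 60 min at 30 °C with GST-tagged kinase domain, labelled peptide and ATP, and terminated with EDTA stop buffer.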

In test [2] the target is T2, GST-JAK2(808-1132) (Homo sapiens, UniProt O60674).
T2 construct: GST-JAK2(808-1132); purchased Invitrogen (Carlsbad, USA) #4288
T2 sequence (O60674 808-1132): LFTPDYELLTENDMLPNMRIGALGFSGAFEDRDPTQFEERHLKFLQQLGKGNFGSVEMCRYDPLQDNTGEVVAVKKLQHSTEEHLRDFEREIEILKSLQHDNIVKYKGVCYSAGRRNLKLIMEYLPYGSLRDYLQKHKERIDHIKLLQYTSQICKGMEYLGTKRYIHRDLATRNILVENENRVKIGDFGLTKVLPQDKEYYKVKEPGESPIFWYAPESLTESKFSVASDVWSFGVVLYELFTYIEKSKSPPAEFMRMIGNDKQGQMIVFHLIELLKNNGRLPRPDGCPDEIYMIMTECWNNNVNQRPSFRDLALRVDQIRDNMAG
Description: EPK JAK-family kinases profiling assay (Caliper mobility shift), JAK2. In kind it is biochemical. The following applies: ATP 20 μM, 1.8 nM kinase. A digest of the protocol:
as §1

Test [3] deals with T3, GST-TYK2(888-1187) (Homo sapiens, UniProt P29597).
T3 construct: GST-TYK2(888-1187); made in house
T3 sequence (P29597 888-1187): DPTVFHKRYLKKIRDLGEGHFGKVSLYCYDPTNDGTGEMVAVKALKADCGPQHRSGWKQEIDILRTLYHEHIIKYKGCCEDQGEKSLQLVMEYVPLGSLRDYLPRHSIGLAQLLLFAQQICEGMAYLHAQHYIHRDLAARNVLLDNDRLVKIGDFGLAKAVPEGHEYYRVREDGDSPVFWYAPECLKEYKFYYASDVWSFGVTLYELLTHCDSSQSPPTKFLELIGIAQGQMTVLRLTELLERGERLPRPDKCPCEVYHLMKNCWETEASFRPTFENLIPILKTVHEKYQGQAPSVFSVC
The test is described as follows: EPK JAK-family kinases profiling assay (Caliper mobility shift), TYK2. The settings on record: ATP 30 μM, 40 nM kinase. In kind it is biochemical. The text has this:
All four kinases of the JAK-family kinases were used as purified recombinant GST-fusion proteins, containing the active kinase domains. GST-JAK1(866-1154), GST-JAK3(811-1124), and GST-TYK2(888-1187) were expressed and purified by affinity chromatography at the EPK biology unit. GST-JAK2(808-1132) was purchased from Invitrogen (Carlsbad, USA, #4288).
The kinase assays were based on the Caliper mobility shift assay using the LabChip 3000 systems. This technology is similar to capillary electrophoresis and uses charge driven separation of substrate and product in a microfluidic chip.
All kinase reactions were performed in 384 well microtiter plates in a total reaction volume of 18 μl. The assay plates were prepared with 0.1 μl per well of test compound in the appropriate test concentration, as described under the section “preparation of compound dilutions”. The reactions were started by combining 9 μl of substrate mix (consisting of peptide and ATP) with 9 μl of kinase dilution. The reactions were incubated for 60 minutes at 30° C. and stopped by adding 70 μl of stop buffer (100 mM Hepes, 5% DMSO, 0.1% Coating reagent, 10 mM EDTA, 0.015% Brij 35).
Fluorescently labeled synthetic peptides were used as substrates in all reactions. […] Specific assay conditions are described in Table 1:
The terminated reactions were transferred to the Caliper LabChip 3000 reader and the turnover of each reaction was measured by determining the substrate/product ratio.
Test compounds were dissolved in DMSO (10 mM) and transferred into 1.4 mL flat bottom or V-shaped Matrix tubes carrying a unique 2D matrix chip by individual compound hubs. The numbers of these chips were distinctively linked to the individual compound identification numbers. The stock solutions were stored at −20° C. if not used immediately. For the test procedure the vials were defrosted and identified by a scanner whereby a working sheet was generated that guided the subsequent working steps.
Compound dilutions were made in 96 well plates. This format enabled the assay of maximally 40 individual test compounds at 8 concentrations (single points) including 4 reference compounds. The dilution protocol included the production of pre-dilution plates, master plates and assay plates:
Pre-dilution plates: 96 polypropylene well plates were used as pre-dilution plates. A total of 4 pre-dilution plates were prepared including 10 test compounds each on the plate positions A1-A10, one standard compound at A11 and one DMSO control at A12. All dilution steps were done on a HamiltonSTAR robot.
Master plates: 100 μL of individual compound dilutions including standard compound and controls of the 4 “pre-dilution plates” were transferred into a 384 “master plate” including the following concentrations 1′820, 564, 182, 54.6, 18.2, 5.46, 1.82 and 0.546 μM, respectively in 90% of DMSO.
Assay plates: Identical assay plates were then prepared by pipetting 100 nL each of compound dilutions of the master plates into 384-well “assay plates”. […] The preparation of the master plates were handled by the Matrix PlateMate Plus robot and replication of assay plates by the HummingBird robot.

Test [4] has as its system JAK/STAT pathway (JAK1/JAK2-dependent nuclear translocation of STAT1-GFP). The test is described as follows: Inhibition of the JAK/STAT pathway: IFN-γ stimulated nuclear translocation of STAT1-GFP in HT1080 fibrosarcoma cells. The settings on record: Homo sapiens, HT-1080; HT1080 STAT1-GFP cells, 100 ng/ml IFN-γ 2 hours, compound added 30 min before; read-out: STAT1translo IC50. In kind it is cell-based. A digest of the protocol:
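HT1080 cells stably expressing STAT1-GFP, compounds added 30 min before IFN-γ stimulation at final 10 μM down to 0.003 μM (0.1% DMSO). Nuclear-cytoplasmic GFP intensity differential quantified by automated imaging with Hoechst nuclear mask, ≥1000 cells per well, averaged per well.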

The structures appear in SMILES notation. Some results are limits rather than exact numbers.

One may read the IC50 as the concentration at which inhibition is half-maximal.

T1 sequence (P23458 866-1154): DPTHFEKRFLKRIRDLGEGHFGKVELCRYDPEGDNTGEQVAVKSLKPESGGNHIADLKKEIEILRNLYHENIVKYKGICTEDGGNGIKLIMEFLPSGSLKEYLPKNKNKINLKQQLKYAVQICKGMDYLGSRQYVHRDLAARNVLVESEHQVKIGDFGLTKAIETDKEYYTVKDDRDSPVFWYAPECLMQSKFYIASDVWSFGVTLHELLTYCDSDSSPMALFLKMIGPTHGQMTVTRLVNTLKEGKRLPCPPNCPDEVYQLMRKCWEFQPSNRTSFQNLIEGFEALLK

`Cc1cc(-c2cnc3cccc(-c4cc(F)c(CN5CCOCC5)c(F)c4)c3n2)ccc1C(=O)NCCO` [Example 120, 4-[8-(3,5-Difluoro-4-morpholin-4-ylmethyl-phenyl)-quinoxalin-2-yl]-N-(2-hydroxy-ethyl)-2-methyl-benzamide]: the IC50 in test [1] is 0.13 µM; in test [2], 0.013 µM; in test [3], 0.35 µM; in test [4], 1.73 µM.

For `Cc1nn(C2CCNCC2)cc1-c1cnc2cccc(-c3cc(F)c(CN4CCOCC4)c(F)c3)c2n1` [Example 127, 8-(3,5-Difluoro-4-morpholin-4-ylmethyl-phenyl)-2-(3-methyl-1-piperidin-4-yl-1H-pyrazol-4-yl)-quinoxaline], the IC50 in test [1] is 0.066 µM; in test [2], under 0.003 µM; in test [3], 0.038 µM; in test [4], 0.086 µM.

For the compound `COC(=O)N1CCC(n2cc(-c3cnc4cccc(-c5cc(F)c(CN6CCOCC6)c(F)c5)c4n3)cn2)CC1` [Example 130, 4-{4-[8-(3,5-Difluoro-4-morpholin-4-ylmethyl-phenyl)-quinoxalin-2-yl]-pyrazol-1-yl}-piperidine-1-carboxylic acid methyl ester], the IC50 amounted to 0.15 µM in test [1], 0.0034 µM in test [2], 0.2 µM in test [3] and 0.163 µM in test [4].

For the compound `Cc1nn(C2CCN(C(=O)C(C)C)CC2)cc1-c1cnc2cccc(-c3cc(F)c(CN4CCOCC4)c(F)c3)c2n1` [Example 131, 1-(4-{4-[8-(3,5-Difluoro-4-morpholin-4-ylmethyl-phenyl)-quinoxalin-2-yl]-3-methyl-pyrazol-1-yl}-piperidin-1-yl)-2-methyl-propan-1-one], the IC50 in test [1] was 0.05 µM; in test [2] it was under 0.003 µM; in test [3] it was 0.033 µM; in test [4] it was 0.09 µM.

Consider `CS(=O)(=O)c1ccc(-c2cccc3ncc(-c4cnn(C5CCNCC5)c4)nc23)cc1` [Example 144, 8-(4-Methanesulfonyl-phenyl)-2-(1-piperidin-4-yl-1H-pyrazol-4-yl)-quinoxaline], for which the IC50 in test [1] worked out at 0.96 µM; in test [2], 0.025 µM; in test [3], 0.97 µM; in test [4], 7.66 µM.

`CN1CCN(c2cccc(-c3cnc4cccc(-c5cc(F)c(CN6CCS(=O)(=O)CC6)c(F)c5)c4n3)c2)CC1` [Example 170, 8-[4-(1,1-Dioxido-thiomorpholin-4-ylmethyl)-3,5-difluoro-phenyl]-2-[3-(4-methyl-piperazin-1-yl)-phenyl]-quinoxaline]: the IC50 is 0.021 µM in test [1], 0.004 µM in test [2], 0.14 µM in test [3] and 0.296 µM in test [4].

On to `Fc1cc(-c2cccc3ncc(-c4cnn(CC5CCNCC5)c4)nc23)cc(F)c1CN1CCOCC1` [Example 133, 8-(3,5-Difluoro-4-morpholin-4-ylmethyl-phenyl)-2-(1-piperidin-4-ylmethyl-1H-pyrazol-4-yl)-quinoxaline], for which the IC50 in test [1] was 0.55 µM; in test [2] it was 0.0054 µM; in test [3] it was 0.75 µM; in test [4], 0.84 µM.

Take `c1cc(-c2ccc(CN3CCOCC3)cc2)c2nc(-c3cnn(C4CCNCC4)c3)cnc2c1` [Example 150, 8-(4-Morpholin-4-ylmethyl-phenyl)-2-(1-piperidin-4-yl-1H-pyrazol-4-yl)-quinoxaline]: the IC50 turned out to be 0.83 µM in test [1], 0.03 µM in test [2], 0.83 µM in test [3] and 4.28 µM in test [4].

`COc1ccc(-c2cnc3cccc(-c4cc(F)c(CN5CCS(=O)(=O)CC5)c(F)c4)c3n2)cc1N1CCN(C)CC1` [Example 163, 8-[4-(1,1-Dioxido-thiomorpholin-4-ylmethyl)-3,5-difluoro-phenyl]-2-[4-methoxy-3-(4-methyl-piperazin-1-yl)-phenyl]-quinoxaline]: the IC50 in test [1] was 0.077 µM; in test [2], under 0.003 µM; in test [3] it was 0.088 µM.

Turning to `Cc1nn(C2CCNCC2)c(C)c1-c1cnc2cccc(-c3ccc(CN4CCOCC4)cc3)c2n1` [Example 156, 2-(3,5-Dimethyl-1-piperidin-4-yl-1H-pyrazol-4-yl)-8-(4-morpholin-4-ylmethyl-phenyl)-quinoxaline], the IC50 in test [1] is over 10 µM; in test [2], 0.95 µM; in test [3], over 10 µM.

For `Cc1nn(C2CCNCC2)c(C)c1-c1cnc2cccc(-c3cc(F)c(CN4CCOCC4)c(F)c3)c2n1` [Example 155, 8-(3,5-Difluoro-4-morpholin-4-ylmethyl-phenyl)-2-(3,5-dimethyl-1-piperidin-4-yl-1H-pyrazol-4-yl)-quinoxaline], the values for the IC50 in test [1], in test [2] and in test [3] were 3.4 µM, 0.063 µM and 7.6 µM, respectively.

`Fc1cc(-c2cccc3ncc(-c4cnn(C5CCCNC5)c4)nc23)cc(F)c1CN1CCOCC1` (racemic) [Example 160, (rac)-8-(3,5-Difluoro-4-morpholin-4-ylmethyl-phenyl)-2-(1-piperidin-3-yl-1H-pyrazol-4-yl)-quinoxaline]: the IC50 in test [1] is 0.36 µM; in test [2] it was 0.0064 µM; in test [3], 0.4 µM.

For the compound `CN1CCN(C(=O)c2cc(-c3cnc4cccc(-c5cc(F)c(CN6CCOCC6)c(F)c5)c4n3)cn2C)CC1` [Example 167, {4-[8-(3,5-Difluoro-4-morpholin-4-ylmethyl-phenyl)-quinoxalin-2-yl]-1-methyl-1H-pyrrol-2-yl}-(4-methyl-piperazin-1-yl)-methanone], the IC50 came to 0.053 µM in test [1], 0.0081 µM in test [2] and 0.18 µM in test [3].

`O=S1(=O)CCN(Cc2c(F)cc(-c3cccc4ncc(-c5cccc(N6CCNCC6)c5)nc34)cc2F)CC1` [Example 169, 8-[4-(1,1-Dioxido-thiomorpholin-4-ylmethyl)-3,5-difluoro-phenyl]-2-(3-piperazin-1-yl-phenyl)-quinoxaline]: the figures for the IC50 in test [1], in test [2] and in test [3] were 0.017 µM, under 0.003 µM and 0.026 µM, respectively.

In the case of `CN1CCN(C(=O)c2cccc(-c3cnc4cccc(-c5ccc(CN6CCS(=O)(=O)CC6)cc5)c4n3)c2)CC1` [Example 165, (3-{8-[4-(1,1-Dioxido-thiomorpholin-4-ylmethyl)-phenyl]-quinoxalin-2-yl}-phenyl)-(4-methyl-piperazin-1-yl)-methanone], the figures for the IC50 in test [1], in test [2] and in test [3] were 0.16 µM, 0.074 µM and 1.2 µM, respectively.

For `Cc1cc(CN2CCOCC2)ccc1-c1cccc2ncc(-c3cnn(C4CCNCC4)c3)nc12` [Example 147, 8-(2-Methyl-4-morpholin-4-ylmethyl-phenyl)-2-(1-piperidin-4-yl-1H-pyrazol-4-yl)-quinoxaline], the concentration for half-maximal inhibition (IC50) in test [1] came out at 1.5 µM; in test [2], 0.097 µM; in test [3] it was 1 µM.
